Calls of active or inactive are those of the source.
Experiments:
[1] = molecular target: T1, Coagulation factor XII (Homo sapiens, UniProt P00748); experiment: FXIIa inhibitor potency, concentration-response, biochemical (AID 716); type: functional
T1 sequence (P00748 whole entry): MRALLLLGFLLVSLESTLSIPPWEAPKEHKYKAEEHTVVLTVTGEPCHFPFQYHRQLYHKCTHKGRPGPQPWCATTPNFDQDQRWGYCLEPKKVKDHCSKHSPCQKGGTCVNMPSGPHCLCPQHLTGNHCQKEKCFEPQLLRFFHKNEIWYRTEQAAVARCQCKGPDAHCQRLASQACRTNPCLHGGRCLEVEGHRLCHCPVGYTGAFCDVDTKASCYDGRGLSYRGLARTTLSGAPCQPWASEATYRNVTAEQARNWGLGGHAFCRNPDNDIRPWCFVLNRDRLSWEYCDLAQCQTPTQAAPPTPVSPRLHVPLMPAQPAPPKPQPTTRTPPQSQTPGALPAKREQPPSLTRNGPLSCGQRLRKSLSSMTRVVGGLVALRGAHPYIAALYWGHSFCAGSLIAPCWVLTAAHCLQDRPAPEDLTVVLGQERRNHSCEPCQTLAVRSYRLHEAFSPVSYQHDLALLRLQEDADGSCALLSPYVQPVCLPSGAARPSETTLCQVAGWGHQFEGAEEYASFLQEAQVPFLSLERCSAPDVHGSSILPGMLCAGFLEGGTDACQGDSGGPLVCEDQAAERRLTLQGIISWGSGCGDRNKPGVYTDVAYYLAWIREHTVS

[2] = molecular target: Voltage-dependent T-type calcium channel subunit alpha-1H (Homo sapiens, UniProt O95180); experiment: Cav3.2 T-type channel inhibitors, cell-based, synthetic library set 1, calcium flux (AID 493022); type: functional
Sequence of Voltage-dependent T-type calcium channel subunit alpha-1H (O95180 whole entry): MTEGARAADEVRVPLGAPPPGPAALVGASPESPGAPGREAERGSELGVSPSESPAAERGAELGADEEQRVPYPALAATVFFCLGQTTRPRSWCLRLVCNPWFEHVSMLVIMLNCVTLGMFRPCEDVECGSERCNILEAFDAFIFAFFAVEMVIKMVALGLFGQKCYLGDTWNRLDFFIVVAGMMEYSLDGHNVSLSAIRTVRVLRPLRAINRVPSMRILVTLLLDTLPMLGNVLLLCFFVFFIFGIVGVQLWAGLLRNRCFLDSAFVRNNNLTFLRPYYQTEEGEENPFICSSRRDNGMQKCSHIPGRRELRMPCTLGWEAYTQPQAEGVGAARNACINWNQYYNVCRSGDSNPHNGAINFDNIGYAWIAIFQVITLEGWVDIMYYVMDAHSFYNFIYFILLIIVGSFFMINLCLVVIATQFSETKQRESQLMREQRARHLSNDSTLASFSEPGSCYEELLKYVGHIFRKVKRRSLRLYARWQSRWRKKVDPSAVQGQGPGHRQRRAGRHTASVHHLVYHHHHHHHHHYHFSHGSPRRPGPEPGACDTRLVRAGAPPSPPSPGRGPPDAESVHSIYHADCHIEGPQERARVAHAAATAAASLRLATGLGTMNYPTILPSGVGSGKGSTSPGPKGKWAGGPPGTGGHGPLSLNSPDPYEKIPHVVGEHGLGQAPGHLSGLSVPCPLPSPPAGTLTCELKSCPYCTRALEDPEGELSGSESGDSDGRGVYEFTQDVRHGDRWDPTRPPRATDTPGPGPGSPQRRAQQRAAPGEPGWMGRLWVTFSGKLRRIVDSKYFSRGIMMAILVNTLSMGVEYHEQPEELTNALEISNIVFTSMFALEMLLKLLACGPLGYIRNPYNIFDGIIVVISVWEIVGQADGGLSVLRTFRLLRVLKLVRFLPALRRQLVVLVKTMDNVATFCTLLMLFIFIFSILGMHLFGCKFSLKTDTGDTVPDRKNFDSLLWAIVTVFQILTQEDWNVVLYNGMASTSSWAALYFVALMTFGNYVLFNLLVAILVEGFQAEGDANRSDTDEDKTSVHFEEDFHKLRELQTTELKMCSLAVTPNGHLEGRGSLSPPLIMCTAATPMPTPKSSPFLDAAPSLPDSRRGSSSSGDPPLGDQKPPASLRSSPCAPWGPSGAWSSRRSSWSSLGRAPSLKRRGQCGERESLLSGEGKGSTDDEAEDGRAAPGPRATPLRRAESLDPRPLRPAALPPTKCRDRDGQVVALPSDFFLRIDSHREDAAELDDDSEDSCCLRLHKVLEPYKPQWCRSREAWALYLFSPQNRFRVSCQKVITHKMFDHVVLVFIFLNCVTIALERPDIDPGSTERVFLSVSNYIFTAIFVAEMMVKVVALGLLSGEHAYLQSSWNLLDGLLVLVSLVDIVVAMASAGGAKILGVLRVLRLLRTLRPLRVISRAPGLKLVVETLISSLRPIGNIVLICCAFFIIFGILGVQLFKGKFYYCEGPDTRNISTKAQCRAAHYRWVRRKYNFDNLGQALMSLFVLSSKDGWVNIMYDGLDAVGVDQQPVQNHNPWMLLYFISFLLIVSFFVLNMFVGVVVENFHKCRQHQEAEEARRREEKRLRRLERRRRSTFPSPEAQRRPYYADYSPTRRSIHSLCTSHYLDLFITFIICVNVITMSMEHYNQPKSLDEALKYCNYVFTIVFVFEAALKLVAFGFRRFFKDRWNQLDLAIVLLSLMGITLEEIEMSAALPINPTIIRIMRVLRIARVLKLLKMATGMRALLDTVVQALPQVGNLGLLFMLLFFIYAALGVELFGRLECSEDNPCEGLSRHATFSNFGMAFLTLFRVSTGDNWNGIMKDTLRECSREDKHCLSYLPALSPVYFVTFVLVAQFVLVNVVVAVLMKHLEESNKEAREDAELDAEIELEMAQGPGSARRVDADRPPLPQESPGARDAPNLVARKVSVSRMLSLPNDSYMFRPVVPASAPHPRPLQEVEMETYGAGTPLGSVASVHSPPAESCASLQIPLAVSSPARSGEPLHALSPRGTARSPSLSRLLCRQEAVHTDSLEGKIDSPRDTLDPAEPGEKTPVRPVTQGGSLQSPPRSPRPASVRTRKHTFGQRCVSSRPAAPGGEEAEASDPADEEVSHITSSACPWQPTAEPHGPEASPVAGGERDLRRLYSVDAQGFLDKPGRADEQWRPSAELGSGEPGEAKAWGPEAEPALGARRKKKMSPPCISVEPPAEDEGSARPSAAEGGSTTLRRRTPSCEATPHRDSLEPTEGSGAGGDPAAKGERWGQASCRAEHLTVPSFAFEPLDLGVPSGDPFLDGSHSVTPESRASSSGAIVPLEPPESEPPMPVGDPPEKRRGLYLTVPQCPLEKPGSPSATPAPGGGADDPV

[3] = molecular target: T2, Tyrosine-protein phosphatase non-receptor type 7 (Homo sapiens, UniProt P35236); experiment: redox-dependent HePTP inhibition, mechanism study, biochemical, fluorescence (AID 2068); type: functional
T2 sequence (P35236 whole entry): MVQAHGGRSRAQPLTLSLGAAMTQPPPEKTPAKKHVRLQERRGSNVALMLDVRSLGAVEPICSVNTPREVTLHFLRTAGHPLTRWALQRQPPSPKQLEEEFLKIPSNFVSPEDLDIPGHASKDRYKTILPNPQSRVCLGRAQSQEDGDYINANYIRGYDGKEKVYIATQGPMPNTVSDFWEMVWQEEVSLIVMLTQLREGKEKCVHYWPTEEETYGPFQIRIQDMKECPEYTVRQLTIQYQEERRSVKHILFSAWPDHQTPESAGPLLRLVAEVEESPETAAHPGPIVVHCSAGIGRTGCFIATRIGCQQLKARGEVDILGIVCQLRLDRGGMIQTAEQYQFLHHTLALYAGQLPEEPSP

[4] = molecular target: Dual specificity protein phosphatase 3 (Homo sapiens, UniProt P51452); experiment: SAR VHR1 Fluorescent Assay for In Vitro dose response studies Set 2. [Related pubchem assays (depositor defined):AID1654, AID1661, AID1878]; type: functional
Sequence of Dual specificity protein phosphatase 3 (P51452 whole entry): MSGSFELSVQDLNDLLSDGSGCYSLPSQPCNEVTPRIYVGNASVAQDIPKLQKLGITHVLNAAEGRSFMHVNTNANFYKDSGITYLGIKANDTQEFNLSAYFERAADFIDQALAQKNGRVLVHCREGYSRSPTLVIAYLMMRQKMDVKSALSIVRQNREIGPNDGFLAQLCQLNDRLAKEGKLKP

[5] = molecular target: T3, Dual specificity protein phosphatase 6 (Rattus norvegicus, UniProt Q64346); type: functional;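 also: confirmatory in vitro dose-response testing of MKP-3 inhibition; recombinant His-tagged MKP-3 made in E. coli BL21 with OMFP substrate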
T3 sequence (Q64346 whole entry): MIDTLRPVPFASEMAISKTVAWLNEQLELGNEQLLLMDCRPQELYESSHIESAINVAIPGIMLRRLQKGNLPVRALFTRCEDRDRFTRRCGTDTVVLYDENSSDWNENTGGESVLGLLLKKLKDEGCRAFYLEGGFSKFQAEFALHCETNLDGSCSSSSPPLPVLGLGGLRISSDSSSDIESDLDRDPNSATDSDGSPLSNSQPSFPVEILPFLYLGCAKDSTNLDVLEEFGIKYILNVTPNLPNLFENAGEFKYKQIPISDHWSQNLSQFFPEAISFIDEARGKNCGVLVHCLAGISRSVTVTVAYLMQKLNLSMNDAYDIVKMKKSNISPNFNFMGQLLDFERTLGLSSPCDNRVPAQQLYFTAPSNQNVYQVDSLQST

[6] = molecular target: DNA dC->dU-editing enzyme APOBEC-3G (Homo sapiens, UniProt Q9HC16); type: functional;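 also: Dose-response counterscreen measuring inhibition of APOBEC3G DNA deaminase activity, run while confirming APOBEC3A inhibitors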
Sequence of DNA dC->dU-editing enzyme APOBEC-3G (Q9HC16 whole entry): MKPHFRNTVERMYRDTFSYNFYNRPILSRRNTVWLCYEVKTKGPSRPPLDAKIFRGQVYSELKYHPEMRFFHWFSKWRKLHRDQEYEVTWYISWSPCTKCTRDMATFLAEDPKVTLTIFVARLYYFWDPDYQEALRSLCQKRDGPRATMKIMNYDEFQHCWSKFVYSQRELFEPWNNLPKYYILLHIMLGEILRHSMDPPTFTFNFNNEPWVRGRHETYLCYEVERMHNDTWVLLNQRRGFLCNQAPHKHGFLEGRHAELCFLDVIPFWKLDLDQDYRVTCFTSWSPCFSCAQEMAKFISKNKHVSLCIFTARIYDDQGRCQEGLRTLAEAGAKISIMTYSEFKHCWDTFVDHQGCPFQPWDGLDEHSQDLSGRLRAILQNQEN

[7] = molecular target: DNA dC->dU-editing enzyme APOBEC-3A (Homo sapiens, UniProt P31941); experiment: Dose Response confirmation of small molecule APOBEC3A DNA Deaminase Inhibitors via a fluorescence-based single-stranded DNA deaminase assay. [Related pubchem assays (depositor defined):AID493011, AID493024]; type: functional
Sequence of DNA dC->dU-editing enzyme APOBEC-3A (P31941 whole entry): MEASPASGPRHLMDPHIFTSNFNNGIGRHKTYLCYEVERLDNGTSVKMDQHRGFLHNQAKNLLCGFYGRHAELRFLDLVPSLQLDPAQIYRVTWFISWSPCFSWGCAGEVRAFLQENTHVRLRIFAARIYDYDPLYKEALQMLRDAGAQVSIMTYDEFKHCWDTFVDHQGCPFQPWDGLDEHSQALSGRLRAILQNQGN

[8] = molecular target: Cytochrome P450 2C9 (Homo sapiens, UniProt P11712)
Sequence of Cytochrome P450 2C9 (P11712 whole entry, the tested form may be a part): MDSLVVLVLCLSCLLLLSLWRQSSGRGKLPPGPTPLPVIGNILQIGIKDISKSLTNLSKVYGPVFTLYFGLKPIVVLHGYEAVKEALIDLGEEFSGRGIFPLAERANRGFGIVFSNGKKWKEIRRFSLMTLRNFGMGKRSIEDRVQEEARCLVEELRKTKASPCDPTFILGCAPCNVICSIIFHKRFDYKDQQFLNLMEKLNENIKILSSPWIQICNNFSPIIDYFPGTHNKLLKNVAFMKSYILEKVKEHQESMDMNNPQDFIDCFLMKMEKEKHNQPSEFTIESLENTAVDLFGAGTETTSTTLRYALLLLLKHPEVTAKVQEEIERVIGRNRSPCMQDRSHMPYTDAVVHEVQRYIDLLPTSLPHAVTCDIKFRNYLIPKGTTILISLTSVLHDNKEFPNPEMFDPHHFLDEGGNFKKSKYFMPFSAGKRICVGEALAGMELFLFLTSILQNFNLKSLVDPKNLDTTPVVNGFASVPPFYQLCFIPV

[9] = molecular target: Perilipin-1/ABHD5 (Homo sapiens, UniProt O60240+Q8WTS1); experiment: Luminescence-based biochemical high throughput dose response assay for inhibitors of the interaction of the lipase co-activator protein, abhydrolase domain containing 5 (ABHD5) with perilipin-1 (PLIN1) (2K validation set). [Related pubchem assays (depositor defined):AID493027, AID493057]
Sequence of Perilipin-1/ABHD5 (Q8WTS1 whole entry, the tested form may be a part): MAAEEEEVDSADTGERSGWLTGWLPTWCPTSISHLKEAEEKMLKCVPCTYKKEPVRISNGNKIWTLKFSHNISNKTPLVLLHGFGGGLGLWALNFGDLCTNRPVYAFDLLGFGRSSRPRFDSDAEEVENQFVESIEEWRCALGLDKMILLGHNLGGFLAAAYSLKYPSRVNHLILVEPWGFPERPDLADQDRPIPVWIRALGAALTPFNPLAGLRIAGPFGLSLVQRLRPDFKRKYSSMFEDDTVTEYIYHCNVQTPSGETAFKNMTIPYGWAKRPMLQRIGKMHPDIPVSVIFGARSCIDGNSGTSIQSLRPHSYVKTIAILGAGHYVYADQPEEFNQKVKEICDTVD
Sequence of Perilipin-1/ABHD5 (O60240 whole entry, the tested form may be a part): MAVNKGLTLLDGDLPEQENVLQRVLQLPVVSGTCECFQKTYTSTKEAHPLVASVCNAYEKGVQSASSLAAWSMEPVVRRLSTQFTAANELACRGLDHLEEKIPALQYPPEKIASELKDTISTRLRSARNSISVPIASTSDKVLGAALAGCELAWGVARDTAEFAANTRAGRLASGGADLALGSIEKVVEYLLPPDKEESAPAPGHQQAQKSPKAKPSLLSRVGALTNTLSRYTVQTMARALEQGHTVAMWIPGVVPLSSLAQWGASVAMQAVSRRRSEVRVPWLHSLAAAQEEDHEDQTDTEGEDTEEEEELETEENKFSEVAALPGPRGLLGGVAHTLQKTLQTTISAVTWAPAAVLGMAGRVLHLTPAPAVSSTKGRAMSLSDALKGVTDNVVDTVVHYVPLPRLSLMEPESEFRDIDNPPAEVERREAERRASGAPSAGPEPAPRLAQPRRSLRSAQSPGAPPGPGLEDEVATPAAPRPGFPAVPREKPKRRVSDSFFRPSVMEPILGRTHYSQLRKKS

[10] = molecular target: 1-acylglycerol-3-phosphate O-acyltransferase ABHD5/Perilipin-5 (Homo sapiens, UniProt Q00G26+Q8WTS1); experiment: Luminescence-based biochemical high throughput dose response assay for inhibitors of the interaction of the lipase co-activator protein, abhydrolase domain containing 5 (ABHD5) with perilipin-5 (MLDP; PLIN5) (2K validation set). [Related pubchem assays (depositor defined):AID493035, AID493241]
Sequence of 1-acylglycerol-3-phosphate O-acyltransferase ABHD5/Perilipin-5 (Q00G26 whole entry, the tested form may be a part): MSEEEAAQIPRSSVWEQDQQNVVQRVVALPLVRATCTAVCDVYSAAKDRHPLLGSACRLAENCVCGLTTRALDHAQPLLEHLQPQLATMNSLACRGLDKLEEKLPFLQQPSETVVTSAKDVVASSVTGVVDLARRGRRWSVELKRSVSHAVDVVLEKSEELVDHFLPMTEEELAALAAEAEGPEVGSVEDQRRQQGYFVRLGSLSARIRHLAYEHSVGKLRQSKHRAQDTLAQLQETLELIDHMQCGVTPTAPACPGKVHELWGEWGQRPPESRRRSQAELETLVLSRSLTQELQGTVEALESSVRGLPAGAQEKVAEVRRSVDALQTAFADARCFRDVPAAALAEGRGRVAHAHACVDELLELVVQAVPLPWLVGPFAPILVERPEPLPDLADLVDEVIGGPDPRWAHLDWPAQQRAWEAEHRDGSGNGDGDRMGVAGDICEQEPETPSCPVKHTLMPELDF
Sequence of 1-acylglycerol-3-phosphate O-acyltransferase ABHD5/Perilipin-5 (Q8WTS1 whole entry, the tested form may be a part): as the sequence (Q8WTS1 whole entry, the tested form may be a part) above

For `O=C(O)COc1ccc2c(c1)OCCO2`, the IC50 [1] was > 50 µM (inactive).

`O=C(COc1ccccc1F)Nc1nnc(-c2ccc(F)cc2)o1` was tested, and the EC50 [2] was 10 µM (active).

With `NS(=O)(=O)c1cc(C(=O)Nc2cccc(Cl)c2)ccc1Cl` the IC50 [3] was > 100 µM (inactive), the IC50 [4] was > 100 µM (inactive) and the IC50 [5] was > 100 µM (inactive).

In the case of `CCc1ccc(OCC(=O)N/N=C\c2ccco2)c([N+](=O)[O-])c1`, the IC50 [6] is reported as 39.8 µM (active) and the IC50 [7] is reported as 18.6 µM (active).

With `CC1=CC(=O)c2ccccc2C1=O` [MENADIONE] the AC50 [8] was 6.31 µM (inconclusive), the IC50 [9] was 7.9 µM (active) and the IC50 [10] was 9.47 µM (active).
